# Measurements as given in US12648903B2, “Skin care composition” (BEIERSDORF AG, priority 2019, dated 2026).
# Tests used:
# [1] = tested on: C. acnes strain C3; test: Minimum inhibitory concentration (MIC) of cosmetic excipients, strain C3; format: cell-based, Cutibacterium acnes; conditions: % w/vol, incubated anaerobically 3 days at 37° C., growth scored visually
# Experimental: (§1) In microbiology, the MIC is the lowest concentration of a chemical which prevents visible growth of bacterium. The resulted MIC value depends both on the microorganism and the test compound. The MIC is determined by preparing concentrations series of the test compound in vitro, incubating the solutions with the separate batches of cultured bacteria, and measuring the results using agar dilution or broth microdilution. For the experiments with C. acnes strains C3 and K8, media comprising yeast extract soy peptone and dextrose were used. The MIC is determined by turbidity.
# (§2) A total of 125 cosmetic excipients were tested for their compatibility with C. acnes strains C3 and K8. Hydrophilic compounds were tested in a 96-well plate liquid broth format, poorly soluble compounds were pre-dissolved in DMSO before dilution in liquid broth and hydrophobic or solid compounds were tested in an agar well diffusion test assay. The different dilutions of the test excipients in media were prepared in Falcon tubes and then distributed in a deep well plate using a multistepper. Each well received 1.2 ml and was subsequently inoculated with 120 μl of C. acnes bacteria suspension (strain C3 and K8). From the deep well plate 200 μl were transferred in each well of a clear 96 well replicate plate. The leftover was discarded. The plates were then incubated anaerobically for 3 days at 37° C. Following incubation, the test plates were visually examined and wells were scored for growth or complete growth inhibition to define the minimum inhibitory concentration.
# (§3) These excipients are listed in the below table with their compatibility values for C. acnes strains C3 and K8. The compatibility values represent the MIC value of the listed ingredients with the tested C. acnes strains. At this concentration [% w/vol] the tested compound starts interfering with the growth of the tested strains. The compounds can be used in formulations at concentrations below this concentration.
# [2] = tested on: C. acnes strain K8; test: Minimum inhibitory concentration (MIC) of cosmetic excipients, strain K8; format: cell-based, Cutibacterium acnes; conditions: % w/vol, incubated anaerobically 3 days at 37° C., growth scored visually
# Experimental: as §1, §2, §3
Compound,COMPATABILITY VALUE C3 [%] (MIC value) [1],COMPATABILITY VALUE K8 [%] (MIC value) [2]
CC(CO)CO [methylpropanediol],4.00%,4.00%
tocopherol,1.50%,1.50%
ethylhexyl cocoate,10.00%,10.00%
CCCCCCC(O)CO (centres unmarked) [caprylyl glycol],0.18%,0.18%
